Values quoted from earlier work, collected in patent US7087611B2, “Preparation of an anhydrate form of 5-[2-[4-(1,2-benzisothiazol-3-yl)-1-piperazinyl]ethyl]-6-chloro-1,3-dihydro-2H-indol-2-one hydrochloride (ziprasidone hydrochloride)” (Apotex Pharmachem Inc., priority 2004, dated 2006).
Where a name gives a salt, the structure may show the parent alone.

Key:
[1] = crystalline monohydrate form; as stated in U.S. Pat. No. 5,312,925
[2] = crystalline monohydrate form; background statement

hygroscopic stability [1]: substantially hygroscopically stable
aqueous solubility [2]: very low
Structure (SMILES): O=C1Cc2cc(CCN3CCN(c4nsc5ccccc45)CC3)c(Cl)cc2N1 [ziprasidone hydrochloride monohydrate]
